From patent US8367086B1, “Process and product for inhibiting or preventing bacterial infections” (S.S. Steiner, Inc., priority 2004, dated 2013)
Positions of bridges follow the written chain, without caps; N, C: chain ends. Non-standard residues stand in square brackets, D forms with d. Residues, ends and D or L forms follow the SMILES beside them. *: point of attachment. Ileψ(thiazoline)Cys = CC[C@H](C)[C@H](N)C1=N[C@H](C(=O)*)CS1; dOrn = NCCC[C@@H](N)C(=O)O

Test system: Staphlococcus saprophyticus
Assay: paper disc diffusion susceptibility (Kirby-Bauer) method
Type: cell-based
Details: for change of zone of inhibition when lupulone was added: Experiment 1, 0.2 μg/ml β-resin versus antibiotic alone; for zone of inhibition, Experiment 1 Control / zone of inhibition, Experiment 2 Control: antibiotic disc alone; for zone of inhibition, Experiment 1 Control / zone of inhibition, Experiment 2 Control / zone of inhibition, Experiment 1 0.2 μg/ml β-resin / zone of inhibition, Experiment 2 0.2 μg/ml β-resin: 24 hours; for zone of inhibition, Experiment 1 0.2 μg/ml β-resin / zone of inhibition, Experiment 2 0.2 μg/ml β-resin: antibiotic disc with 0.2 μg/ml β-resin in the agar
Text: The first test method to be applied was the paper disc diffusion susceptibility method. In this method a filter paper disc impregnated with a chemical is placed on agar, and the chemical will diffuse from the disc into the agar. If an organism is placed on the agar, it will not grow in the area around the disc if it is susceptible to the chemical. This area of no growth around the disc is known as the zone of inhibition. This disc diffusion method for antibiotic susceptibility is known as the Kirby-Bauer method. In testing the effectiveness of various antibiotics, all factors, e.g., the agar utilized, the depth of the agar, the amount of organism used, and incubation conditions, are maintained constant for the various organisms and antibiotics being tested. […] The size of the zone of inhibition of the particular antimicrobial substance may also be influenced by the diffusion capability of that substance.
In performing the disc diffusion method tests, a bacterial suspension having an inoculum density of approximately 1×10^8 CFU/ml (colony forming units) was added to 10 ml trypticase soy agar at 46° C. It was mixed thoroughly by vortexing and then poured into a plastic Petri dish. After hardening of the agar, filter paper discs (φ7 mm.) made from Whatman filter paper No. 1 that had been impregnated by the manufacturer, Becton Dickinson, Inc., with the suitable antibiotic, were placed on the agar. In this series of tests the ability of each antibiotic per se to control the growth of the bacteria was measured.
Another series of agar containing Petri dishes was then prepared using the same bacteria and density thereof as had been prepared for the prior test series. However, here hop compounds were also present in the agar. The hop extract, either lupulone, humulone or xanthohumol, was dissolved in ethanol. While certain of the hop components are only slightly soluble in water, they are very soluble in ethanol. An ethanol control was prepared in the same way.
The size of the inhibition zones was measured to the nearest mm.
The concentration of β-acid and xanthohumol is set forth in μg/ml. The zone of inhibition was measured in centimeters. […]

CC[C@H](C)[C@H](N)C1=N[C@H](C(=O)N[C@@H](CC(C)C)C(=O)N[C@H](CCC(=O)O)C(=O)N[C@H](C(=O)N[C@H]2CCCCNC(=O)[C@H](CC(N)=O)NC(=O)[C@@H](CC(=O)O)NC(=O)[C@H](Cc3cnc[nH]3)NC(=O)[C@@H](Cc3ccccc3)NC(=O)[C@H]([C@@H](C)CC)NC(=O)[C@@H](CCCN)NC2=O)[C@@H](C)CC)CS1 [BACITRACIN, bacitracin] ({Ileψ(thiazoline)Cys}-L[dE]IK[dOrn]I[dF]H[dD]N; lactam 4-C)
change of zone of inhibition when lupulone was added: remained constant
zone of inhibition, Experiment 1 Control: 0 mm
zone of inhibition, Experiment 2 Control: 0 mm
zone of inhibition, Experiment 1 0.2 μg/ml β-resin: 0 mm
zone of inhibition, Experiment 2 0.2 μg/ml β-resin: 0 mm

O=C(N[C@H](CO)[C@H](O)c1ccc([N+](=O)[O-])cc1)C(Cl)Cl [CHLORAMPHENICOL, chloramphenicol]
change of zone of inhibition when lupulone was added: decline
zone of inhibition, Experiment 1 Control: 29 mm
zone of inhibition, Experiment 2 Control: 25 mm
zone of inhibition, Experiment 1 0.2 μg/ml β-resin: 27 mm
zone of inhibition, Experiment 2 0.2 μg/ml β-resin: 25 mm

CC[C@H]1OC(=O)[C@H](C)[C@@H](O[C@H]2C[C@@](C)(OC)[C@@H](O)[C@H](C)O2)[C@H](C)[C@@H](O[C@@H]2O[C@H](C)C[C@H](N(C)C)[C@H]2O)[C@](C)(O)C[C@@H](C)C(=O)[C@H](C)[C@@H](O)[C@]1(C)O [ERYTHROMYCIN, erythromycin]
change of zone of inhibition when lupulone was added: remained constant
zone of inhibition, Experiment 1 Control: 23 mm
zone of inhibition, Experiment 2 Control: 23 mm
zone of inhibition, Experiment 1 0.2 μg/ml β-resin: 25 mm
zone of inhibition, Experiment 2 0.2 μg/ml β-resin: 23 mm

[H]/N=C(/N)N[C@H]1[C@H](O)[C@@H](O)[C@H](O[C@@H]2O[C@@H](C)[C@](O)(C=O)[C@H]2O[C@@H]2O[C@@H](CO)[C@H](O)[C@@H](O)[C@@H]2NC)[C@@H](N/C(N)=N\[H])[C@@H]1O [STREPTOMYCIN, streptomycin]
change of zone of inhibition when lupulone was added: remained constant
zone of inhibition, Experiment 1 Control: 15 mm
zone of inhibition, Experiment 2 Control: 15 mm
zone of inhibition, Experiment 1 0.2 μg/ml β-resin: 15 mm
zone of inhibition, Experiment 2 0.2 μg/ml β-resin: 14 mm
